Laboratory results published in US20210195905A1, “NATURAL COMPLEX PRESERVATIVE AGENT FOR GRAIN OR GRAIN PRODUCT” (BST Inc., priority 2019, published 2021).

Test: DPPH radical scavenging (antioxidant activity)
Assay type: biochemical
Conditions: 0.2 mM DPPH, 30 minutes in the dark, absorbance 517 nm

Row | Compound | concentration for 50% scavenging of radical (SC50)
1 | COc1ccc(O)c(C(C)(C)C)c1 [BHA, Butylated Hydroxy Anisole] | 58.83 µg/mL
2 | O=C1O[C@H]([C@@H](O)CO)C(O)=C1O [L-ascorbic acid] | 49.95 µg/mL
